The source of these data is publication PMC12822916 (Cell reports, 2025).

The experiment deals with eIF3e (Homo sapiens, UniProt P60228). The experiment can be described thus: isothermal dose-response fingerprint CETSA, western blot. The conditions noted are these: MCF7-SIX1 lysate, 10 min at room temperature with compound, heated at 53 °C for 3 min; pH 7.5 Tris, 100 mM NaCl, 1 mM DTT. In kind it is biochemical.
Sequence of eIF3e (P60228 2-445): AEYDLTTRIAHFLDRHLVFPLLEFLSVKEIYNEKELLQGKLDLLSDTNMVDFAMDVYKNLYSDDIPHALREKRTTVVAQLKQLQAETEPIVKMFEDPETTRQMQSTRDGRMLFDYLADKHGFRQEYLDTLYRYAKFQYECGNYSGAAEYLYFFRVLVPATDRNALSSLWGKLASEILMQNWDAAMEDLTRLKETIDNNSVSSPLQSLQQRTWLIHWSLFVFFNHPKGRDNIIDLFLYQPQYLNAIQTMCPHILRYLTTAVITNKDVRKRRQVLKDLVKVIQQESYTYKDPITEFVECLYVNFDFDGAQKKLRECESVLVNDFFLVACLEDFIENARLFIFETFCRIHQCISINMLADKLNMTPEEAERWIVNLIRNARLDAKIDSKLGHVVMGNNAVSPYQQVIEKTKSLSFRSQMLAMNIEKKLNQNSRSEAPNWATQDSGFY

Turning to `COc1ccc(NC(=O)c2cccc(-n3cccc3)c2)cc1S(=O)(=O)N1CCOCC1` [compound 8430, NCGC00378430], the EC50 was 13.6 µM.
